In patent US9855268B2, “Triazolo[4,5-d]pyrimidine derivatives” (Merck Patent GmbH, priority 2013, dated 2018):

Assays:
[1] = biological target: T1, GCN2 (Homo sapiens, UniProt Q9P2K8); assay: Cellular assay of GCN2 activity (phospho-eIF2alpha immunocytochemistry after tryptophanol); format: cell-based; design: endogenous in cells; host or cells: U2OS; settings: Human U2OS cells, 2 h compound, 600 μM tryptophanol 30 min
Description: Cellular Assay for the Determination of Compound Activities
Human U2OS cells (2000 cells/well) are seeded into 384-well plates and incubated for 20 hours.
The next day, the cells are treated with the test compounds and incubated for 2 hours. Then, tryptophanol, at a final concentration of 600 μM, is added to the cells and those are incubated for 30 minutes.
The analysis of cellular GCN2 activities is done by immunocytochemistry.
Briefly, cells are fixated on the well surfaces by formaldehyde and permeabilised with Triton X-100.
The analysis and quantification of phosphorylated GCN2 is done by scanning the plates in the Acumen Explorer system (TTPLabtech). The obtained data are normalised against the untreated control wells (DMSO only) and expressed as % effect values. The determination of IC50 values is done by using the Graph Pad Prism software.
Target sequence in this assay (Q9P2K8 whole entry): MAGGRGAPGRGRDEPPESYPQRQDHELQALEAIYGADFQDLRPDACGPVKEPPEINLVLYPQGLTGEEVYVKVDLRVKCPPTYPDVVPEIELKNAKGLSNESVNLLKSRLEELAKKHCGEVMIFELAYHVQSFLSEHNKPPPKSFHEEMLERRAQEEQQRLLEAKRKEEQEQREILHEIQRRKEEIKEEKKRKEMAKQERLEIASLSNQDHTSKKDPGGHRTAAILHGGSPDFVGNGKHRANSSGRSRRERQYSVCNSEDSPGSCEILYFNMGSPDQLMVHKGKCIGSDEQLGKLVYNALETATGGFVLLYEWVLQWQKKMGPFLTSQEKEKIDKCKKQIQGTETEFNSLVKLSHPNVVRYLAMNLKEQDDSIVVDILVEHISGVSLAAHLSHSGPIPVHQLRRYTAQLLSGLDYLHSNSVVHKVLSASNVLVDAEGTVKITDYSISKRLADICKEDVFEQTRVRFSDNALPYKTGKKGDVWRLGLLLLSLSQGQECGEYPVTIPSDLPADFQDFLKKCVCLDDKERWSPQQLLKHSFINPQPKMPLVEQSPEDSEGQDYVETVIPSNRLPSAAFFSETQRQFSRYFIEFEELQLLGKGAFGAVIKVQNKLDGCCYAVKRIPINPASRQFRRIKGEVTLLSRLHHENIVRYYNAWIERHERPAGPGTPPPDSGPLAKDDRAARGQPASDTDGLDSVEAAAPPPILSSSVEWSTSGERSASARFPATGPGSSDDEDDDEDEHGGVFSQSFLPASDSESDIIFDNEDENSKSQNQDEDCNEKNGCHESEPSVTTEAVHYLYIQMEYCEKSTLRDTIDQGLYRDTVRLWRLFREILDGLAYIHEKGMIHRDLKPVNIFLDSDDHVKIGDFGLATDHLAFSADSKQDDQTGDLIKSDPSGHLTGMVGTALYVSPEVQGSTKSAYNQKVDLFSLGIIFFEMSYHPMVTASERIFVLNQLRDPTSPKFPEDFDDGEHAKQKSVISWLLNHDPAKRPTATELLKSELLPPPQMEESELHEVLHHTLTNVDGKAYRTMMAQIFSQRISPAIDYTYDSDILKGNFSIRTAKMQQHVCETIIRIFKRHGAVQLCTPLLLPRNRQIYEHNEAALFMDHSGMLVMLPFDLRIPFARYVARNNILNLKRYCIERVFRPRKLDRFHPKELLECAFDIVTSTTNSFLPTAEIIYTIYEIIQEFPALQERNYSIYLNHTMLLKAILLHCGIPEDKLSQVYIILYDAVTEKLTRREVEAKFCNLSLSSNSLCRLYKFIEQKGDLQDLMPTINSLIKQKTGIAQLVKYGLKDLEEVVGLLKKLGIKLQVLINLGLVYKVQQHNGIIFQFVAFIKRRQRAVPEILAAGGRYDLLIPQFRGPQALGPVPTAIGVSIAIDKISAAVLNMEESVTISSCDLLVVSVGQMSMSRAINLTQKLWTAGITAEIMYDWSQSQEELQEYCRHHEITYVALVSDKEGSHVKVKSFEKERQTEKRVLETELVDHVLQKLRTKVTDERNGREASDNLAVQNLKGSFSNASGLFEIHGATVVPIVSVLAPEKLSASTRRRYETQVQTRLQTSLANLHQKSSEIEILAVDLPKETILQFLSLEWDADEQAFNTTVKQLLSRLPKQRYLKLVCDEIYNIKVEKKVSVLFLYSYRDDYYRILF

[2] = biological target: T1, GCN2; assay: GCN2 enzyme assay (TR-FRET Lanthascreen, GFP-eIF2alpha phosphorylation); format: biochemical; settings: 10 μM ATP, 80 nM GFP-eIF2a, 30 nM GCN2
Procedure, shortened: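 Phosphorylation of GFP-eIF2alpha (80 nM) by GCN2 run at room temperature with 10 μM ATP. After EDTA quench, product quantified by Lanthascreen TR-FRET (antibody–GFP complex, 340 nm excitation).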
Target sequence in this assay (Q9P2K8 whole entry, species assumed): as the sequence (Q9P2K8 whole entry) above

[3] = biological target: GSK3α(h) (Homo sapiens, UniProt P49840); assay: GSK3α radiometric kinase assay (33P-ATP, phospho GS2 peptide); format: biochemical; settings: read-out: IC50 GSK3α (enzyme assay)
GSK3α(h), sequence (P49840 whole entry): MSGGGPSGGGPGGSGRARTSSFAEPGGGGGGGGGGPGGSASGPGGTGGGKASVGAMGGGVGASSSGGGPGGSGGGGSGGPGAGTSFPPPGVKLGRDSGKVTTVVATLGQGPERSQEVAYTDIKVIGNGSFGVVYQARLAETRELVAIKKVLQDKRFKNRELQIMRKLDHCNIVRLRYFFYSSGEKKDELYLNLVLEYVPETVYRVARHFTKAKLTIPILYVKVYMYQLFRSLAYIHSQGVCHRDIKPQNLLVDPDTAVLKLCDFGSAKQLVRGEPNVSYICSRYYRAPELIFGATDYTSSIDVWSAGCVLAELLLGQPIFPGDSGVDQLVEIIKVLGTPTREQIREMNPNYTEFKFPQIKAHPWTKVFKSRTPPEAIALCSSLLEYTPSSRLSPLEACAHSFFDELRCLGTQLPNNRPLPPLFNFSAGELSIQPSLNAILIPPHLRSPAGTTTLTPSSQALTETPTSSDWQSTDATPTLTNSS
Description: GSK3α(h) is incubated with 8 mM MOPS pH 7,0, 0,2 mM EDTA, 20 μM
[…](p)EDEEE (phosphor GS2 peptide), 10 mM Mg-acetate and [gamma-33P-ATP](specific activity approx. 500 cpm/Pmol, concentration as required). The reaction is initiated by the addition of the MgATP. After incubation for 40 minutes at the room temperature, the Reaction is stopped by the addition of 3% phosphoric acid solution. 10 μL of reaction is then spotted onto a P30 filtermat and washed three times for 5 minutes in 50 mM phosphoric acid and once in methanol prior to drying and scintillation counting.

| Compound | IC50 [1] | IC50 [2] | IC50 [3] |
| --- | --- | --- | --- |
| Cn1cc(-c2ccc(-n3nnc4cnc(N[C@H]5CC[C@H](O)C5)nc43)cc2)cn1 (relative stereo) [A51, trans-3-{3-[4-(1-methyl-1H-pyrazol-4-yl)-phenyl]-3H-[1,2,3]triazolo[4,5-d]pyrimidin-5-ylamino}-cyclopentanol] | 1 to 5 µM | < 1 µM |  |
| OCCn1cc(-c2ccc(-n3nnc4cnc(N[C@H]5CC[C@H](O)C5)nc43)cc2)cn1 (relative stereo) [A57, trans-3-(3-{4-[1-(2-hydroxy-ethyl)-1H-pyrazol-4-yl]-phenyl}-3H-[1,2,3]triazolo[4,5-d]pyrimidin-5-ylamino)-cyclopentanol] | 1 to 5 µM | < 1 µM |  |
| O[C@@H]1CC[C@@H](Nc2ncc3nnn(-c4ccc(OC[C@H](O)C(F)(F)F)cc4)c3n2)C1 (stereo in doubt) [A205, (trans)-3-{3-[4-((S)-3,3,3-trifluoro-2-hydroxy-propoxy)-phenyl]-3H-[1,2,3]triazolo[4,5-d]pyrimidin-5-ylamino}-cyclopentanol] | 5 to 10 µM | < 1 µM |  |
| COc1ccc(-n2nnc3cnc(NC4CC4)nc32)cc1 [A4, cyclopropyl-[3-(4-methoxy-phenyl)-3H-[1,2,3]triazolo[4,5-d]pyrimidin-5-yl]-amine] | < 1 µM | < 1 µM |  |
| COc1ccc(-n2nnc3cnc(NC4CCN(C(=O)CCN(C)C)CC4)nc32)cc1 [A49, 3-dimethylamino-1-{4-[3-(4-methoxy-phenyl)-3H-[1,2,3]triazolo[4,5-d]pyrimidin-5-ylamino]-piperidin-1-yl}-propan-1-one] | 5 to 10 µM | < 1 µM |  |
| COCCn1cc(-c2ccc(-n3nnc4cnc(N[C@H]5CC[C@H](N)CC5)nc43)cc2)cn1 [A52, N-(3-{4-[1-(2-methoxy-ethyl)-1H-pyrazol-4-yl]-phenyl}-3H-[1,2,3]triazolo[4,5-d]-pyrimidin-5-yl)-cyclohexane-1,4-diamine] | 1 to 5 µM | < 1 µM |  |
| N[C@H]1CC[C@H](Nc2ncc3nnn(-c4ccc(N5CCOCC5)cc4)c3n2)CC1 [A64, N-[3-(4-morpholin-4-yl-phenyl)-3H-[1,2,3]triazolo[4,5-d]pyrimidin-5-yl]-cyclohexane-1,4-diamine] | 1 to 5 µM | < 1 µM |  |
| N[C@H]1CC[C@H](Nc2ncc3nnn(-c4ccc(N5CC[C@@H](O)C5)cc4)c3n2)CC1 [A70, (R)-1-{4-[5-((trans)-4-amino-cyclohexylamino)-[1,2,3]triazolo[4,5-d]pyrimidin-3-yl]-phenyl}-pyrrolidin-3-ol] | 5 to 10 µM | < 1 µM |  |
| Cn1cc(-c2ccc(-n3nnc4cnc(N[C@@H]5CCNC5)nc43)cc2)cn1 [A116, {3-[4-(1-methyl-1H-pyrazol-4-yl)-phenyl]-3H-[1,2,3]triazolo[4,5-d]pyrimidin-5-yl}-(R)-pyrrolidin-3-yl-amine] | 5 to 10 µM | < 1 µM |  |
| N[C@H]1CC[C@H](Nc2ncc3nnn(-c4ccc(N5CC[C@H](O)C5)cc4)c3n2)CC1 [A128, (S)-1-{4-[5-(4-amino-cyclohexylamino)-[1,2,3]triazolo[4,5-d]pyrimidin-3-yl]-phenyl}-pyrrolidin-3-ol] | 5 to 10 µM | < 1 µM |  |
| COCC(COC)Oc1ccc(-n2nnc3cnc(N[C@@H]4CC[C@@H](C(N)=O)C4)nc32)cc1 [A167, (1R,3R)-3-{3-[4-(2-methoxy-1-methoxymethyl-ethoxy)-phenyl]-3H-[1,2,3]triazolo[4,5-d]pyrimidin-5-ylamino}-cyclopentanecarboxylic acid amide] | 1 to 5 µM | < 1 µM |  |
| NC(=O)[C@@H]1CC[C@@H](Nc2ncc3nnn(-c4ccc(OC5CCOCC5)cc4)c3n2)C1 [A168, (1R,3R)-3-{3-[4-(tetrahydro-pyran-4-yloxy)-phenyl]-3H-[1,2,3]triazolo[4,5-d]-pyrimidin-5-ylamino}-cyclopentanecarboxylic acid amide] | 1 to 5 µM | < 1 µM |  |
| NC(=O)[C@@H]1CC[C@@H](Nc2ncc3nnn(-c4ccc(I)cc4)c3n2)C1 [A170, (1R,3R)-3-[3-(4-iodo-phenyl)-3H-[1,2,3]triazolo[4,5-d]pyrimidin-5-ylamino]-cyclopentanecarboxylic acid amide] | 1 to 5 µM | < 1 µM |  |
| NC(=O)[C@@H]1CC[C@@H](Nc2ncc3nnn(-c4ccc5nsnc5c4)c3n2)C1 [A174, (1R,3R)-3-(3-benzo[1,2,5]thiadiazol-5-yl-3H-[1,2,3]triazolo[4,5-d]pyrimidin-5-ylamino)-cyclopentanecarboxylic acid amide] |  | < 1 µM | < 1 µM |
| COc1ccc(-n2nnc3cnc(N[C@@H]4CC[C@@H](C(N)=O)C4)nc32)nc1 [A175, (1R,3R)-3-[3-(5-methoxy-pyridin-2-yl)-3H-[1,2,3]triazolo[4,5-d]pyrimidin-5-ylamino]-cyclopentanecarboxylic acid amide] |  | < 1 µM | < 1 µM |
| NC(=O)[C@@H]1CC[C@@H](Nc2ncc3nnn(-c4cccc(I)c4)c3n2)C1 [A176, (1R,3R)-3-[3-(3-iodo-phenyl)-3H-[1,2,3]triazolo[4,5-d]pyrimidin-5-ylamino]-cyclopentanecarboxylic acid amide] |  | < 1 µM | < 1 µM |
| Cn1cc2ccc(-n3nnc4cnc(N[C@@H]5CC[C@@H](C(N)=O)C5)nc43)cc2n1 [A185, (1R,3R)-3-[3-(2-methyl-2H-indazol-6-yl)-3H-[1,2,3]triazolo[4,5-d]pyrimidin-5-ylamino]-cyclopentanecarboxylic acid amide] | 5 to 10 µM | < 1 µM |  |
| Cn1cc2cc(-n3nnc4cnc(N[C@@H]5CC[C@@H](C(N)=O)C5)nc43)ccc2n1 [A186, (1R,3R)-3-[3-(2-methyl-2H-indazol-5-yl)-3H-[1,2,3]triazolo[4,5-d]pyrimidin-5-ylamino]-cyclopentanecarboxylic acid amide] | 1 to 5 µM | < 1 µM |  |
| Cc1ccc2cc(-n3nnc4cnc(N[C@@H]5CC[C@H](C(N)=O)C5)nc43)ccc2n1 [A191, (1S,3R)-3-[3-(2-methyl-quinolin-6-yl)-3H-[1,2,3]triazolo[4,5-d]pyrimidin-5-ylamino]-cyclopentanecarboxylic acid amide] | 1 to 5 µM | < 1 µM |  |
| Cc1ccc2cc(-n3nnc4cnc(N[C@@H]5CC[C@@H](O)C5)nc43)ccc2n1 [A208, (1R,3R)-3-[3-(2-methyl-quinolin-6-yl)-3H-[1,2,3]triazolo[4,5-d]pyrimidin-5-ylamino]-cyclopentanol] | 1 to 5 µM | < 1 µM |  |
| O=c1cccnn1CCn1cc(-c2ccc(-n3nnc4cnc(N[C@@H]5CC[C@@H](O)C5)nc43)cc2)cn1 [A236, 2-[2-(4-{4-[5-((1R,3R)-3-hydroxy-cyclopentylamino)-[1,2,3]triazolo[4,5-d]-pyrimidin-3-yl]-phenyl}-pyrazol-1-yl)-ethyl]-2H-pyridazin-3-one] | 5 to 10 µM | < 1 µM |  |
| COc1ccc(-n2nnc3cnc(N[C@@H]4CC[C@@H](C(=O)N(C)C)C4)nc32)cc1 [A243, (1R,3R)-3-[3-(4-methoxy-phenyl)-3H-[1,2,3]triazolo[4,5-d]pyrimidin-5-ylamino]-cyclo pentanecarboxylic acid dimethylamide] | 1 to 5 µM | < 1 µM |  |
| CCOc1ccc(-n2nnc3cnc(N[C@@H]4CC[C@@H](C(=O)N(C)CC(C)(C)O)C4)nc32)cc1 [A251, (1R,3R)-3-[3-(4-ethoxy-phenyl)-3H-[1,2,3]triazolo[4,5-d]pyrimidin-5-ylamino]-cyclopentanecarboxylic acid (2-hydroxy-2-methyl-propyl)-methyl-amide] | 5 to 10 µM | < 1 µM |  |
| NC(=O)[C@@H]1CC[C@@H](Nc2ncc3nnn(-c4ccc(-c5cnn(CCc6nnn[nH]6)c5)cc4)c3n2)C1 [A265, (1R,3R)-3-[3-(4-{1-[2-(1H-tetrazol-5-yl)-ethyl]-1H-pyrazol-4-yl}-phenyl)-3H-[1,2,3]triazolo[4,5-d]pyrimidin-5-ylamino]-cyclopentanecarboxylic acid amide] |  | < 1 µM | < 1 µM |
| COc1ccc(-n2nnc3cnc(N[C@@H]4CCN(S(N)(=O)=O)C4)nc32)cc1 [A270, (R)-3-[3-(4-methoxy-phenyl)-3H-[1,2,3]triazolo[4,5-d]pyrimidin-5-ylamino]-pyrrolidine-1-sulfonic acid amide] |  | < 1 µM | < 1 µM |
| Cn1cc(-c2ccc(-n3nnc4cnc(N[C@@H]5CCN(C(=O)CCCN6CCNCC6)C5)nc43)cc2)cn1 [A271, 1-((R)-3-{3-[4-(1-methyl-1H-pyrazol-4-yl)-phenyl]-3H-[1,2,3]triazolo[4,5-d]pyrimidin-5-ylamino}-pyrrolidin-1-yl)-4-piperazin-1-yl-butan-1-one] |  | < 1 µM | < 1 µM |
